Measured values: paper PMC3257251, “A Whole Cell Assay to Measure Caspase-6 Activity by Detecting Cleavage of Lamin A/C” (PLoS ONE, 2012)
Where two headings read alike, the source gives them in different places. Peptide text beside a SMILES is read from it. * marks the point of attachment. Cbz = O=C(OCc1ccccc1)*; CH2F = FC*

What was measured:
[1] = target: T1, Caspase-6 (Homo sapiens, UniProt P55212); experiment: Enzymatic caspase activity assay, (Ac-VEID)2-Rh110 substrate; conditions: 15 minute enzyme/inhibitor preincubation and 40 minute enzyme reaction
T1 sequence (P55212 24-179 limits assumed): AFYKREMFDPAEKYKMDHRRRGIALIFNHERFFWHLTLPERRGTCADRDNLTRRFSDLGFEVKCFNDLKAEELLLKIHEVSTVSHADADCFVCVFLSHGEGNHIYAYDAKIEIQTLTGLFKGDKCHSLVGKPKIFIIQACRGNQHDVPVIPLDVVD
T1 sequence (P55212 194-293 limits assumed): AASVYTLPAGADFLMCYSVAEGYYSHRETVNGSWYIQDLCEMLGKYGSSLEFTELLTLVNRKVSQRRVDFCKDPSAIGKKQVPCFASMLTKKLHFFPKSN
Protocol: (§1) All peptide inhibitors were serially diluted in DMSO prior to cross dilution in assay buffer (50 mM HEPES pH 7.2, 25 mM MgSO4, 0.5 mM EGTA, 5 mM Glutathione, 0.01% Triton X-100 containing 0.1% Bovine Gamma Globulin (BGG)). […] Rhodamine-labeled bivalent tetrapeptide substrates were obtained from Anaspec (Fremont, CA) and used as follows: 300 pM caspase-3 reacted with 1 µM (Ac-DEVD)2 -Rh110, 1 nM caspase-6 reacted with 5 µM (Ac-VEID)2 -Rh110, 5 pM caspase-7 reacted with 1 µM (Ac-DEVD)2 -Rh110. Enzyme and inhibitor were preincubated for 15 minutes prior to the addition of substrate to initiate the enzymatic reaction.

[2] = target: T2, Caspase-3 (Homo sapiens, UniProt P42574); experiment: Enzymatic caspase activity assay, (Ac-DEVD)2-Rh110 substrate; format: biochemical; conditions: apparent IC50; 15 minute preincubation and 40 minute reaction; 300 pM caspase-3, 1 µM (Ac-DEVD)2-Rh110
T2 construct: made in house; host or cells: E. coli
T2 sequence (P42574 29-175 limits assumed): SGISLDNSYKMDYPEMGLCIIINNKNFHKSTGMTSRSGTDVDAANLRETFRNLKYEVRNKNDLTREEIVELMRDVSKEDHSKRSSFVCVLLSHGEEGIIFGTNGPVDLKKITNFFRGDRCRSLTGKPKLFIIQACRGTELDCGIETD
T2 sequence (P42574 176-277 limits assumed): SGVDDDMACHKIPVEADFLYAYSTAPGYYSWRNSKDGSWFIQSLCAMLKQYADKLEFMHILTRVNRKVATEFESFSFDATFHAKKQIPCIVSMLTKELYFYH
Protocol: as §1

[3] = target: T3, Caspase-7 (Homo sapiens, UniProt P55210); experiment: as above; conditions: read-out: Mean IC50 Caspase-7; apparent IC50; 15 minute preincubation and 40 minute reaction; 5 pM caspase-7, 1 µM (Ac-DEVD)2-Rh110
T3 sequence (P55210 24-198 limits assumed): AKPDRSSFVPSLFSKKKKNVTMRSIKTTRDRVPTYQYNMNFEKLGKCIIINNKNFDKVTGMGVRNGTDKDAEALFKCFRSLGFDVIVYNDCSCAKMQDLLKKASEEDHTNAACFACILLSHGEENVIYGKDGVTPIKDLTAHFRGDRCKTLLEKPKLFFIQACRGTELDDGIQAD
T3 sequence (P55210 207-303 limits assumed): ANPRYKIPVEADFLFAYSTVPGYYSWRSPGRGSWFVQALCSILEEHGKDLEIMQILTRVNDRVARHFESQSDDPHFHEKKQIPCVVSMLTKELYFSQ
Protocol: as §1

[4] = tested on: SKNAS cells; experiment: Mass spectrometry analysis of intracellular inhibitor accumulation; conditions: 10 µM inhibitor, 1 hour at 37°C, LC/MS/MS
Protocol: SKNAS cells were seeded in 12-well plates at a concentration of 5×10^6 cells/mL and allowed to adhere overnight prior to the experiment. Caspase inhibitors (10 µM) in Hank's balance Salt Solution (HBSS; Invitrogen) buffer containing 10 mM HEPES (Invitrogen) and a final DMSO concentration of 0.1% were added in triplicate to the cells. Non specific binding (NSB) samples were prepared by immediately aspirating the dose solution and washing the cells with 1 mL of ice cold HBSS. Cells for the accumulation experiment were incubated for 1 hour at 37°C with inhibitors prior to washing with 1 mL ice cold HBSS. Analytical internal standard (200 nM propranolol (Sigma) in 100% acetonitrile (ACN) with 0.1% formic acid) and blank HBSS buffer were sequentially added to the 12-well plates containing the NSB and accumulation samples. Reference samples for each inhibitor were made by adding internal standard to dose solution and cells incubated for 1 hour at 37°C. The cells from all experiments were scraped from the bottom of the 12 well plates, sonicated for approximately 30 minutes, and centrifuged for 10 minutes at 3000 x g prior to LC/MS/MS analysis.
The LC/MS/MS system consisted of an AB Sciex API4000 mass spectrometer (AB Sciex, Foster City, CA), an Aria LX2 multiplexing LC system (Thermo Fisher Scientific, Waltham, MA) and a CTC Analytics autosampler (Leap Technologies, Carrboro, NC). An ESI Spray source in the positive ion mode and multiple reaction monitoring (MRM) were used to quantitate peak areas. The LC separations were performed on a 50×2.0 mm Gemini C18 analytical column (Phenomenex, Torrance, CA). The mobile phases consisted of water with 0.1% formic acid (mobile phase A) and ACN with 0.1% formic acid (mobile phase B). Mass spectrometer data were processed using Analyst software version 1.4.2.

[5] = target: T4, caspase-6 cleavage of lamin A/C in SKNAS cells (Homo sapiens, UniProt P55212); experiment: Cell-based ELISA for cleaved lamin A/C (cellular lamin cleavage assay); conditions: for IC50: inhibitor 30 min before 3 µM staurosporine for 6 hours, small lamin A/C cleavage product; for fold lower potency in cellular lamin assay than in enzymatic assay: cellular lamin cleavage IC50 versus enzymatic caspase-6 IC50; for activity in the cellular lamin degradation assay: inhibitor concentrations up to 100 µM, 3 µM staurosporine for 6 hours
T4 construct: monitors cellular caspase-6 cleavage of endogenous lamin A/C under apoptotic conditions; endogenous in cells; host or cells: SKNAS (ATCC #CRL-2137)
T4 sequence (P55212 24-179 limits assumed): T1 sequence (P55212 24-179 limits assumed)
T4 sequence (P55212 194-293 limits assumed): T1 sequence (P55212 194-293 limits assumed)
Protocol: The following day, cell culture medium was aspirated and replaced with 20 µl/well basal medium (DMEM with no supplements added). […] 5 µl of diluted inhibitor was delivered to each well and incubated for 30 minutes in a cell culture incubator prior to addition of 5 µl/well staurosporine in basal medium. The final DMSO concentration in the assay was 0.1% and the final staurosporine concentration was 3 µM (or indicated concentration). […] Cells were permeabilized by the addition of 50 µl 0.2% Triton X-100 in PBS for 15 minutes at room temperature. […] The following day, primary antibody was aspirated and the wells washed 3 times with 100 µl TBST. Secondary antibody (donkey anti-rabbit IgG, HRP-conjugated (GE Healthcare #NA934V)) was delivered at 1∶2500 dilution in blocking agent (20 µl/well) and incubated 1 hour at room temperature.
In order to develop an assay more amenable to inhibitor screening, this antibody detection was adapted to a plate-based non-denaturing assay. SKNAS cells cultured in 384-well plates were treated with 3 µM staurosporine for six hours prior to fixation with 4% paraformaldehyde and permeabilization with 0.2% Triton X-100. Binding of the two antibodies that recognize neo-epitopes on the large or small lamin degradation products was detected by horseradish-peroxidase-labeled secondary antibody and subsequent chemiluminescent substrate addition (see methods for details).

[6] = tested on: SKNAS cells; experiment: LDH release assay; format: cell-based, human
Protocol: SKNAS cells were plated at a density of 20,000 cells per well into 384-well black clear-bottom cell culture plates in 20 µl/well growth medium and allowed to adhere overnight. The following day, 5 µl staurosporine diluted in growth medium was delivered to each well and incubated for the indicated time in a cell culture incubator. The final DMSO concentration in the assay was 0.1%. At each timepoint, lactate dehydrogenase (LDH) activity was measured in cell supernatants using a colorimetric LDH activity measurement kit (BioVision; Mountain View, CA) according to manufacturer's recommendation by measuring absorbance at 450 nm using a Spectramax platereader (Molecular Devices; Sunnyvale, CA).

[7] = tested on: VEIDase activity in SKNAS cells; experiment: Caspase-Glo 6 assay (lysate based); format: cell-based, human; conditions: 3 µM staurosporine for 6 hours, lysate based readout, read-out: IC50 for inhibition of VEIDase activity, Caspase-Glo 6 assay
Protocol: SKNAS cells were plated at a density of 20,000 cells per well into 384-well black clear-bottom cell culture plates in 20 µl/well growth medium and allowed to adhere overnight. The following day, 5 µl of peptide inhibitor diluted in growth medium was delivered to each well 30 minutes prior to addition of 5 µl/well staurosporine in growth medium. The final DMSO concentration in the assay was 0.1% and the final staurosporine concentration was 3 µM. Following 6 hours incubation at 37°C, Caspase-Glo® 6 reagents (Promega; Madison, WI) were prepared according to manufacturer's recommendation, and 30 µl was added directly to each well, followed by 1 hour incubation at 37°C and luminescence recording using a Perkin Elmer Envision.

[8] = read-out: Enzymatic Caspase-6 IC50
[9] = read-out: Mean IC50 Caspase-6, apparent IC50, 1 nM caspase-6, 5 µM (Ac-VEID)2-Rh110

CC[C@H](C)[C@H](NC(=O)[C@H](CCC(=O)OC)NC(=O)[C@@H](NC(=O)OCc1ccccc1)C(C)C)C(=O)N[C@@H](CC(=O)OC)C(=O)CF [z-VEID-FMK] (Cbz-VE(OMe)ID(OMe)-CH2F)
IC50 [1, 8]: 129 nM | IC50 [1, 9]: 129 nM | IC50 [2]: 45.1 nM | IC50 [3]: 648 nM

z-ID-TFPM
IC50 [1, 8]: 19 nM | % cell accumulation [4]: 1.97% | IC50 ([5]; SKNAS cells): 180 nM | fold lower potency in cellular lamin assay than in enzymatic assay [5]: ~10 fold

COC(=O)CC[C@H](NC(=O)[C@H](CC(=O)OC)NC(=O)OCc1ccccc1)C(=O)N[C@H](C(=O)N[C@@H](CC(=O)OC)C(=O)CF)C(C)C [z-DEVD-FMK]
IC50 [1, 8]: 402 nM | IC50 [1, 9]: 402 nM | IC50 ([5]; SKNAS cells): > 100000 nM | IC50 [3]: 98.5 nM

z-EID-TFPM
IC50 [1, 8]: 8.4 nM | IC50 ([5]; SKNAS cells): 21000 nM

CN[C@@H]1C[C@H]2O[C@@](C)([C@@H]1OC)n1c3ccccc3c3c4c(c5c6ccccc6n2c5c31)C(=O)NC4 [staurosporine]
treatment time required for the same degree of LDH release ([6]; 30 µM staurosporine): 4 h | staurosporine concentration at which LDH release is detected above background levels ([6]; after 6 hours of treatment): ~4 µM | signal:background ratio of lamin A/C degradation ([5]; SKNAS cells, 3 µM staurosporine, six-hour treatment, no inhibitor): 8.8 fold

CC[C@H](C)[C@H](NC(=O)[C@H](CCC(=O)O)NC(=O)[C@@H](NC(C)=O)C(C)C)C(=O)N[C@H](C=O)CC(=O)O [Ac-VEID-CHO] (Ac-VEID-aldehyde)
IC50 [7]: 490 nM | IC50 [2]: 13.6 nM | activity in the cellular lamin degradation assay ([5]; SKNAS cells): lacks any activity in the cellular assay | IC50 [3]: 162 nM

z-VEID-tetrafluorophenoxymethyl [z-VEID-TFPM]
IC50 [1, 8]: < 1.7 nM | % cell accumulation [4]: 0.17% | IC50 ([5]; SKNAS cells): 12000 nM

CC[C@H](C)[C@H](NC(C)=O)C(=O)N[C@@H](CCC(=O)O)C(=O)N[C@H](C(=O)N[C@H](C=O)CC(=O)O)[C@@H](C)O [Ac-IETD-CHO] (Ac-IETD-aldehyde)
IC50 [1, 9]: 53.2 nM | IC50 [2]: 75.8 nM | IC50 [3]: 553 nM

COC(=O)C[C@H](NC(=O)[C@H](C)NC(=O)[C@@H](NC(=O)OCc1ccccc1)C(C)C)C(=O)CF [z-VAD-FMK] (Cbz-Val-Ala-Asp(OMe)-CH2F)
IC50 [1, 8]: 2110 nM | IC50 [1, 9]: 2110 nM | IC50 [2]: 168 nM | IC50 ([5]; SKNAS cells): 44000 nM | IC50 [3]: 74.7 nM

CC(=O)N[C@@H](CC(=O)O)C(=O)N[C@@H](CCC(=O)O)C(=O)N[C@H](C(=O)N[C@H](C=O)CC(=O)O)C(C)C [Ac-DEVD-CHO]
IC50 [1, 8]: 31 nM | IC50 [1, 9]: 30.5 nM | IC50 [7]: 1490 nM | IC50 ([5]; SKNAS cells): > 100000 nM | activity in the cellular lamin degradation assay ([5]; SKNAS cells): inactive in lamin degradation assay | IC50 [3]: 3.7 nM

CC(C)[C@H](NC(=O)c1ccc2ccccc2n1)C(=O)N[C@@H](CC(=O)O)C(=O)COc1c(F)cccc1F [Q-VD-OPh]
IC50 [1, 8]: 156 nM | % cell accumulation [4]: 1.72% | IC50 ([5]; SKNAS cells): 940 nM | fold lower potency in cellular lamin assay than in enzymatic assay [5]: 6 fold
